Assay results as given in ChEMBL document CHEMBL5376026, “Design, synthesis, and antiproliferative evaluation of novel dehydroabietic acid-1,2,3-triazole-oxazolidinone hybrids” (RSC Med Chem, 2024).
Values belong to the molecule of their own block, whether it stands above or below them. Activity calls are given as the source filed them. No cut-off for these calls is given here.

Columns and labels:
MGC-803 [1] = test: Induction of apoptosis in human MGC-803 cells assessed as early apoptotic cells at 5 uM incubated for 48 hrs by Annexin-V FITC and PI staining based flow cytometry (reference value: 0.20%); assay type: functional
MGC-803 [2] = test: Induction of reactive oxygen species generation in human MGC-803 cells at 2.5 to 10 uM incubated for 48 hrs by DCFH-DA staining based fluorescence microscopic analysis; assay type: functional, cell-based; conditions: dose 2.5-10 µM
HeLa = test: Anticancer activity against human HeLa cells assessed as inhibition of cell growth incubated for 48 hrs by MTT assay; assay type: functional, cell-based
MGC-803 [3] = test: Induction of apoptosis in human MGC-803 cells assessed as early apoptotic cells at 10 uM incubated for 48 hrs by Annexin-V FITC and PI staining based flow cytometry (reference value: 0.20%); assay type: functional
[4] = Cytotoxicity against human LO2 cells assessed as reduction in cell viability incubated for 48 hrs by MTT assay; assay type: toxicity, cell-based, L02
MGC-803 [5] = test: Induction of mitochondrial membrane potential loss in human MGC-803 cells at 2.5 uM incubated for 10 to 24 hrs by JC-1 staining based fluorescence microscopic assay; assay type: functional, cell-based; conditions: time 10-24 hrs
T-24 = test: Anticancer activity against human T-24 cells assessed as inhibition of cell growth incubated for 48 hrs by MTT assay; assay type: functional, cell-based; conditions: T-24, 48 h
MGC-803 [6] = test: Induction of cell cycle arrest in human MGC-803 cells assessed as accumulation of cells at S phase at 5 uM incubated for 48 hrs by propidium iodide staining based flow cytometry (reference value: 33.22%); assay type: functional
MGC-803 [7] = test: Induction of apoptosis in human MGC-803 cells assessed as apoptosis rate at 10 uM incubated for 48 hrs by Annexin-V FITC and PI staining based flow cytometry (reference value: 0.42%); assay type: functional
MGC-803 [8] = test: Induction of apoptosis in human MGC-803 cells assessed as viable cells at 10 uM incubated for 48 hrs by Annexin-V FITC and PI staining based flow cytometry (reference value: 98.3%); assay type: functional; conditions: read-out: Activity
MGC-803 [9] = test: Induction of apoptosis in human MGC-803 cells assessed as viable cells at 5 uM incubated for 48 hrs by Annexin-V FITC and PI staining based flow cytometry (reference value: 98.3%); assay type: functional; conditions: read-out: Activity
MGC-803 [10] = test: Induction of apoptosis in human MGC-803 cells assessed as late apoptotic cells at 5 uM incubated for 48 hrs by Annexin-V FITC and PI staining based flow cytometry (reference value: 0.81%); assay type: functional
MGC-803 [11] = test: Induction of apoptosis in human MGC-803 cells assessed as late apoptotic cells at 2.5 uM incubated for 48 hrs by Annexin-V FITC and PI staining based flow cytometry (reference value: 0.81%); assay type: functional
MGC-803 [12] = test: Induction of cell cycle arrest in human MGC-803 cells assessed as accumulation of cells at G0/G1 phase at 5 uM incubated for 48 hrs by propidium iodide staining based flow cytometry (reference value: 50.67%); assay type: functional
MGC-803 [13] = test: Induction of apoptosis in human MGC-803 cells assessed as necrotic cells at 2.5 uM incubated for 48 hrs by Annexin-V FITC and PI staining based flow cytometry (reference value: 0.68%); assay type: functional
MGC-803 [14] = test: Induction of cell cycle arrest in human MGC-803 cells assessed as accumulation of cells at S phase at 2.5 uM incubated for 48 hrs by propidium iodide staining based flow cytometry (reference value: 33.22%); assay type: functional
MGC-803 [15] = test: Induction of apoptosis in human MGC-803 cells assessed as apoptosis rate at 2.5 uM incubated for 48 hrs by Annexin-V FITC and PI staining based flow cytometry (reference value: 0.42%); assay type: functional
MGC-803 [16] = test: Induction of apoptosis in human MGC-803 cells assessed as increase in apoptotic nuclei incubated for 48 hrs by Hoechst 33258 staining based fluorescence microscopic analysis; assay type: functional, cell-based; conditions: dose 2.5-10 µM
MGC-803 [17] = test: Induction of cell cycle arrest in human MGC-803 cells assessed as accumulation of cells at G0/G1 phase at 2.5 uM incubated for 48 hrs by propidium iodide staining based flow cytometry (reference value: 50.67%); assay type: functional
MGC-803 [18] = test: Anticancer activity against human MGC-803 cells assessed as inhibition of cell growth incubated for 48 hrs by MTT assay; assay type: functional, cell-based; conditions: MGC-803, 48 h
MGC-803 [19] = test: Induction of cell cycle arrest in human MGC-803 cells assessed as accumulation of cells at G2/M phase at 2.5 uM incubated for 48 hrs by propidium iodide staining based flow cytometry (reference value: 16.81%); assay type: functional
MGC-803 [20] = test: Induction of apoptosis in human MGC-803 cells assessed as apoptosis rate at 5 uM incubated for 48 hrs by Annexin-V FITC and PI staining based flow cytometry (reference value: 0.42%); assay type: functional
MGC-803 [21] = test: Induction of apoptosis in human MGC-803 cells assessed as viable cells at 2.5 uM incubated for 48 hrs by Annexin-V FITC and PI staining based flow cytometry (reference value: 98.3%); assay type: functional; conditions: read-out: Activity
MGC-803 [22] = test: Induction of apoptosis in human MGC-803 cells assessed as early apoptotic cells at 2.5 uM incubated for 48 hrs by Annexin-V FITC and PI staining based flow cytometry (reference value: 0.20%); assay type: functional
MGC-803 [23] = test: Induction of apoptosis in human MGC-803 cells assessed as chromatin condensation incubated for 48 hrs by Hoechst 33258 staining based fluorescence microscopic analysis; assay type: functional, cell-based; conditions: dose 2.5-10 µM
MGC-803 [24] = test: Induction of cell cycle arrest in human MGC-803 cells assessed as accumulation of cells at G0/G1 phase at 10 uM incubated for 48 hrs by propidium iodide staining based flow cytometry (reference value: 50.67%); assay type: functional
MGC-803 [25] = test: Induction of cell cycle arrest in human MGC-803 cells assessed as accumulation of cells at G2/M phase at 10 uM incubated for 48 hrs by propidium iodide staining based flow cytometry (reference value: 16.81%); assay type: functional
MGC-803 [26] = test: Induction of cell cycle arrest in human MGC-803 cells assessed as accumulation of cells at G2/M phase at 5 uM incubated for 48 hrs by propidium iodide staining based flow cytometry (reference value: 16.81%); assay type: functional
MGC-803 [27] = test: Induction of apoptosis in human MGC-803 cells assessed as late apoptotic cells at 10 uM incubated for 48 hrs by Annexin-V FITC and PI staining based flow cytometry (reference value: 0.81%); assay type: functional
MGC-803 [28] = test: Induction of apoptosis in human MGC-803 cells assessed as necrotic cells at 10 uM incubated for 48 hrs by Annexin-V FITC and PI staining based flow cytometry (reference value: 0.68%); assay type: functional
MGC-803 [29] = test: Induction of apoptosis in human MGC-803 cells assessed as necrotic cells at 5 uM incubated for 48 hrs by Annexin-V FITC and PI staining based flow cytometry (reference value: 0.68%); assay type: functional
MGC-803 [30] = test: Induction of cell cycle arrest in human MGC-803 cells assessed as accumulation of cells at S phase at 10 uM incubated for 48 hrs by propidium iodide staining based flow cytometry (reference value: 33.22%); assay type: functional
HepG2 = test: Anticancer activity against human HepG2 cells assessed as inhibition of cell growth incubated for 48 hrs by MTT assay; assay type: functional, cell-based; conditions: HepG2, 48 h

Structure (SMILES): CC(C)c1ccc2c(c1)CC[C@H]1[C@](C)(C(=O)OCc3cn(CC4CN(c5ccc(Br)cc5)C(=O)O4)nn3)CCC[C@]21C (stereo partly drawn)
Activity (MGC-803 [1]): 16.2%
Activity (MGC-803 [2]): Active
IC50 (HeLa): 25.3 µM
Activity (MGC-803 [3]): 82.1%
IC50 at 48 h [4]: 40 µM
Activity (MGC-803 [5]): Active
IC50 (T-24): 14.2 µM
Activity (MGC-803 [6]): 33.63%
Activity (MGC-803 [7]): 33.34%
viability at 10 µM (MGC-803 [8]): 14%
viability at 5 µM (MGC-803 [9]): 68.8%
Activity (MGC-803 [10]): 12%
Activity (MGC-803 [11]): 6.25%
Activity (MGC-803 [12]): 54.14%
Activity (MGC-803 [13]): 1.32%
Activity (MGC-803 [14]): 34.79%
Activity (MGC-803 [15]): 6%
Activity (MGC-803 [16]): Dose-Dependent Effect
Activity (MGC-803 [17]): 52.14%
IC50 (MGC-803 [18]): 3.18 µM
Activity (MGC-803 [19]): 13.7%
Activity (MGC-803 [20]): 8.87%
viability at 2.5 µM (MGC-803 [21]): 87.5%
Activity (MGC-803 [22]): 4.89%
Activity (MGC-803 [23]): Dose-Dependent Effect
Activity (MGC-803 [24]): 55.64%
Activity (MGC-803 [25]): 11.23%
Activity (MGC-803 [26]): 12.52%
Activity (MGC-803 [27]): 2.64%
Activity (MGC-803 [28]): 1.25%
Activity (MGC-803 [29]): 2.9%
Activity (MGC-803 [30]): 33.22%
IC50 (HepG2): 11.7 µM

Structure (SMILES): CC(C)c1ccc2c(c1)CC[C@H]1[C@](C)(C(=O)OCc3cn(CC4CN(c5cccc(Br)c5)C(=O)O4)nn3)CCC[C@]21C (stereo partly drawn)
IC50 (HeLa): 20.5 µM
IC50 at 48 h [4]: 47.6 µM
IC50 (T-24): 42.6 µM
IC50 (MGC-803 [18]): 21.6 µM
IC50 (HepG2): 12.6 µM

Structure (SMILES): Cc1ccccc1N1CC(Cn2cc(COC(=O)[C@]3(C)CCC[C@]4(C)c5ccc(C(C)C)cc5CC[C@@H]34)nn2)OC1=O (stereo partly drawn)
IC50 (HeLa): 6.44 µM
IC50 at 48 h [4]: 67.3 µM
IC50 (T-24): 17.1 µM
IC50 (MGC-803 [18]): 12.6 µM
IC50 (HepG2): 15.6 µM

Structure (SMILES): CC(C)c1ccc2c(c1)CC[C@H]1[C@](C)(C(=O)OCc3cn(CC4CN(c5ccccc5[N+](=O)[O-])C(=O)O4)nn3)CCC[C@]21C (stereo partly drawn)
IC50 (HeLa): 15 µM
IC50 at 48 h [4]: 76.4 µM
IC50 (T-24): 27.5 µM
IC50 (MGC-803 [18]): 24.5 µM
IC50 (HepG2): 77.1 µM

Structure (SMILES): COc1cc(N2CC(Cn3cc(COC(=O)[C@]4(C)CCC[C@]5(C)c6ccc(C(C)C)cc6CC[C@@H]45)nn3)OC2=O)cc(OC)c1OC (stereo partly drawn)
IC50 (HeLa): 16.6 µM
IC50 at 48 h [4]: 22.7 µM
IC50 (T-24): 12.2 µM
IC50 (MGC-803 [18]): 24.8 µM
IC50 (HepG2): 32.3 µM

Continued, in another order:

IC50 (HeLa): 2.63 µM
IC50 (MGC-803 [18]): 11.1 µM
IC50 (HepG2): 26.8 µM
Structure (SMILES): Cc1ccc(N2CC(Cn3cc(COC(=O)[C@]4(C)CCC[C@]5(C)c6ccc(C(C)C)cc6CC[C@@H]45)nn3)OC2=O)cc1 (stereo partly drawn)
IC50 at 48 h [4]: 71.7 µM
IC50 (T-24): > 100 µM

IC50 (HeLa): 46.7 µM
IC50 (MGC-803 [18]): 12.7 µM
IC50 (HepG2): 45.8 µM
Structure (SMILES): CC(C)c1ccc2c(c1)CC[C@H]1[C@](C)(C(=O)OCc3cn(CC4CN(c5ccc(F)cc5)C(=O)O4)nn3)CCC[C@]21C (stereo partly drawn)
IC50 at 48 h [4]: 41.6 µM
IC50 (T-24): 55.1 µM
